Assay results published in patent US9108930B2, “N1- and N2-carbamoyl-1,2,3-triazole serine hydrolase inhibitors and methods” (The Scripps Research Institute, priority 2011, dated 2015).

Legend:
ABHD6 [1] = biological target: T1, ABHD6 (Mus musculus, UniProt Q8R2Y0); experiment: ABPP-SILAM of brain tissue from treated mice; format: in vivo; set-up: from tissue; host or cells: thioglycolate-elicited peritoneal macrophages of mice; conditions: may not represent actual changes
T1 sequence (Q8R2Y0 1-336): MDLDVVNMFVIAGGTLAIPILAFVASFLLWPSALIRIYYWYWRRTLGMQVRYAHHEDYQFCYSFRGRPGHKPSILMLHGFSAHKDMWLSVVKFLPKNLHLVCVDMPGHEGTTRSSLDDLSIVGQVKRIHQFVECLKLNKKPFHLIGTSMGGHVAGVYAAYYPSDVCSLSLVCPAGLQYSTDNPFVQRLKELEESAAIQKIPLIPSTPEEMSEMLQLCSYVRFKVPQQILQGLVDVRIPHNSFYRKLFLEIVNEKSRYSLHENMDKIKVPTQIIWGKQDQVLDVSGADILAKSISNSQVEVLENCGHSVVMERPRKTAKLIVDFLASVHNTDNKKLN
Description: The potency and selectivity of 1,2,3-triazole ureas in vivo also was investigated. Mice were treated with the APEH inhibitor AA74-1 at various doses (0.2-1.6 mg/kg; PEG300 or 18:1:1 saline/ethanol/emulphor intraperitoneally) and sacrificed after 4 h. Brains and hearts were removed, homogenized, and analyzed by gel-based competitive ABPP. […] Finally, the possibility of extending ABPP-SILAC for the characterization of inhibitor selectivity in vivo was explored by taking advantage of recently described protocols for stable isotope labeling in mammals (SILAM). In this approach, brain tissues from vehicle- and AA74-1-treated mice were separately mixed with equivalent amounts of brain tissue from ‘heavy’ amino acid-fed mice, and the samples were then labeled with FP-biotin, enriched by avidin chromatography, analyzed by LC-MS, and SH activities quantified by measuring the ratio-of-ratios for observed peptide signals. […] The ratio-of-ratio signals for APEH indicated greater than 90% inhibition of this enzyme in AA74-1-treated animals (FIG. 5b, top), consistent with average spectral count values (14 and 1 spectral counts for APEH in vehicle-treated versus AA74-1-treated mice, respectively; FIG. 5b, bottom). […]
C57BL6 mice were labeled with ^15N. […] Brains were determined to be 95% labeled by mass spectrometry with ^15N and used for quantitative analysis. […]

[2] = test system: serine hydrolases (SHs) in mouse brain and heart; experiment: In vivo selectivity across SHs in tissues of treated mice (gel-based ABPP, ABPP-SILAM)
Description: The potency and selectivity of 1,2,3-triazole ureas in vivo also was investigated. Mice were treated with the APEH inhibitor AA74-1 at various doses (0.2-1.6 mg/kg; PEG300 or 18:1:1 saline/ethanol/emulphor intraperitoneally) and sacrificed after 4 h. Brains and hearts were removed, homogenized, and analyzed by gel-based competitive ABPP. […] Finally, the possibility of extending ABPP-SILAC for the characterization of inhibitor selectivity in vivo was explored by taking advantage of recently described protocols for stable isotope labeling in mammals (SILAM). In this approach, brain tissues from vehicle- and AA74-1-treated mice were separately mixed with equivalent amounts of brain tissue from ‘heavy’ amino acid-fed mice, and the samples were then labeled with FP-biotin, enriched by avidin chromatography, analyzed by LC-MS, and SH activities quantified by measuring the ratio-of-ratios for observed peptide signals. […] The ratio-of-ratio signals for APEH indicated greater than 90% inhibition of this enzyme in AA74-1-treated animals (FIG. 5b, top), consistent with average spectral count values (14 and 1 spectral counts for APEH in vehicle-treated versus AA74-1-treated mice, respectively; FIG. 5b, bottom). […] ACHE, an enzyme that is targeted by other reported NHU inhibitors, was not inhibited by AA74-1 in either mouse brain (FIG. 5b) or transfected cell (FIG. 16) proteomes.

[3] = test system: serine hydrolases (SHs) in mouse T-cell proteomes; experiment: Gel-based competitive ABPP, mouse T-cell proteomes in vitro, SH reactivity profile; format: biochemical; conditions: 100 nM, 30 minutes at 37° C.
DAGLB = biological target: T2, DAGLB (Mus musculus, UniProt Q91WC9); experiment: ABPP-SILAC in Neuro2A cells; conditions: about 4 hours; 25 nM KT172, 50 nM KT109
T2 sequence (Q91WC9 1-669): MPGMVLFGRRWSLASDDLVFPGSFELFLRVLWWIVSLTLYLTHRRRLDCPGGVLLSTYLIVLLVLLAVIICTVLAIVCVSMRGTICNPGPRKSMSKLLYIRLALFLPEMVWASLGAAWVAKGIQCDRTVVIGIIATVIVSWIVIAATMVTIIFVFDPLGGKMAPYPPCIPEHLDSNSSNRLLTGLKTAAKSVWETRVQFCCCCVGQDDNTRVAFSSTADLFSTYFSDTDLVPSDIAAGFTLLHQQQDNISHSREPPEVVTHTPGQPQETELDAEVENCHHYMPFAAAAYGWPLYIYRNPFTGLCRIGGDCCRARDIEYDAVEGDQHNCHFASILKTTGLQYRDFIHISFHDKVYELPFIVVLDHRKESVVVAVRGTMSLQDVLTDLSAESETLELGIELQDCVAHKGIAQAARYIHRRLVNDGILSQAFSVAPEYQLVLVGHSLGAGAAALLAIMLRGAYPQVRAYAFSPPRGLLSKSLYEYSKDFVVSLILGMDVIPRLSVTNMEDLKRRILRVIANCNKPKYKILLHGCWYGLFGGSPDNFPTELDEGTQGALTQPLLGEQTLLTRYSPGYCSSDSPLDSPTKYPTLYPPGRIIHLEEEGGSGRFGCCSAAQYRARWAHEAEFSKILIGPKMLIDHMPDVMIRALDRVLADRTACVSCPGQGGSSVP

peritoneal macrophages = experiment: LPS-stimulated TNF-alpha release (ELISA), macrophages from treated C57 BL/6 mice; format: in vivo, mouse; conditions: 5 mg/kg, 4 hours, i.p.; LPS 5 μg/mL, 90 min
Description: The effects of DAGLB-inhibition on the proinflammatory response in Pla2g4a^+/+ versus Pla2g4a^−/− mice also was evaluated. Thioglycolate-elicited macrophages from C57 BL/6 mice treated with KT109 or KT195 (5 mg/kg, 4 hours, i.p.) were harvested, plated, and stimulated with lipopolysaccharide (LPS).

ABHD6 [4] = biological target: T1, ABHD6; experiment: ABPP-MudPIT of peritoneal macrophages from treated mice; set-up: from tissue; host or cells: thioglycolate-elicited peritoneal macrophages of mice; conditions: in vivo

## CC(C)CC(O)(CC(C)C)c1cnn(C(=O)N2CCCC2)n1 [AA74-1]
ABHD6 [1]
  partial inhibition of ABHD6 suggested by ratio-of-ratio signals: 50-60%
[2]; 0.8 mg/kg, i.p.
  SHs inhibited among 44 SHs identified in brain (ABPP-SILAM): only APEH was inhibited
[2]; brain and heart, 0.2-1.6 mg/kg i.p., 4 h
  additional SH targets by gel-based ABPP: No additional SH targets were observed
[3]
  cross-reactivity with other SHs: not interacting with other SHs

## O=C(N1CCCCC1Cc1ccccc1)n1cc(-c2ccc(-c3ccccc3)cc2)nn1 (stereo not shown) [KT109]
DAGLB
  DAGLB activity blocked: approximately 90%
Peritoneal macrophages
  secreted TNF-alpha levels: modest but significant reduction in secreted TNF-alpha levels

## COc1ccc(-c2ccc(-c3cn(C(=O)N4CCCCC4c4ccccc4)nn3)cc2)cc1 (stereo not shown) [KT195]
ABHD6 [4]
  ABHD6 inhibition by spectral counting: complete inhibition of ABHD6
